Reference: PMC6100537, “Exploration of the Fluorescent Properties and the Modulated Activities against Sirtuin Fluorogenic Assays of Chromenone-Derived Natural Products” (Molecules : A Journal of Synthetic Chemistry and Natural …, 2018)

What was measured:
SIRT1 = target: T1, SIRT1 (Homo sapiens, UniProt Q96EB6); assay: AMC-peptide fluorogenic deacetylase assay with recombinant SIRT1, activation at […], compound fluorescence background subtracted; format: biochemical
T1 construct: SIRT1 (part)
T1 sequence (Q96EB6 2-747): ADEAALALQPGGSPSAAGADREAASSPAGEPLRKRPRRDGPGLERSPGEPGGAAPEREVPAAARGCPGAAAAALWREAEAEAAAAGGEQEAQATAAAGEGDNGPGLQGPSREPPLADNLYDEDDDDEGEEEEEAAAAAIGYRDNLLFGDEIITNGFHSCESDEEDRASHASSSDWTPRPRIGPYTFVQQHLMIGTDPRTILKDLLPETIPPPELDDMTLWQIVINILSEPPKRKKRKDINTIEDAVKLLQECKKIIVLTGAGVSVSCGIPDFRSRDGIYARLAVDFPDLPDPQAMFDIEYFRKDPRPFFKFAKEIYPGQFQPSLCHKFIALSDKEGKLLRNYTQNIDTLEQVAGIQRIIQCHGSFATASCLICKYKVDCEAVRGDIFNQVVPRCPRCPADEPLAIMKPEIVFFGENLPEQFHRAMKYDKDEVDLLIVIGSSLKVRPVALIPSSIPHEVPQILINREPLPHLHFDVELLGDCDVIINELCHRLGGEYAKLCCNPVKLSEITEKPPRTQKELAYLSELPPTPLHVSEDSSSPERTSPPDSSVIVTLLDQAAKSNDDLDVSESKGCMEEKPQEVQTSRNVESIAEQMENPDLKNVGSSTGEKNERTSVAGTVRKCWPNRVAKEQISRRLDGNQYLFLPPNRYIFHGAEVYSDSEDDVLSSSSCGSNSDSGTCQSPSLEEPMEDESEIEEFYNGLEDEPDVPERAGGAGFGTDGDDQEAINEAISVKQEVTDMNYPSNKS

SIRT2 = target: T2, SIRT2 (Homo sapiens, UniProt Q8IXJ6); assay: AMC-peptide fluorogenic deacetylase assay with recombinant SIRT2; Lineweaver-Burk kinetics; format: biochemical
T2 construct: SIRT2 (whole)
T2 sequence (Q8IXJ6 1-389): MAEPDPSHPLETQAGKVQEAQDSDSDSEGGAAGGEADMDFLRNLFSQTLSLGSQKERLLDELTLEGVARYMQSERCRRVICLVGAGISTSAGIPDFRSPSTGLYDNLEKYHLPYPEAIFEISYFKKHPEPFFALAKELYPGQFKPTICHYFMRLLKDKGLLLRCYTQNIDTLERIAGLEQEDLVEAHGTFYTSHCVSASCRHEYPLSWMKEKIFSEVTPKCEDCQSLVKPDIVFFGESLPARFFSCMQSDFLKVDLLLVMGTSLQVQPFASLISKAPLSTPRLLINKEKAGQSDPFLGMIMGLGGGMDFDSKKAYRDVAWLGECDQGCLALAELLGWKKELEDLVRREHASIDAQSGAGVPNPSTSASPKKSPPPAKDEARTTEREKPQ

IC50 (SIRT2) [µM]	SMILES	fold induction at 10 µM (SIRT1)
–	Oc1ccc(/C=C/c2cc(O)cc(O)c2)cc1 [compound 1, resveratrol]	11.6
10	COc1ccc2ccc(=O)oc2c1CC=C(C)C [compound 4, osthole]	–
